Series [1] concerns HUVEC. Nature of the series: Cytotoxicity against HUVEC after 48 hrs by MTT assay. The format is cell-based. The note with it: Homo sapiens. For orientation: Formazan colour is commonly taken as a measure of viable cells.
The test system of series [2] is Hep 3B2. Nature of the series: Cytotoxicity against human Hep3B cells at 20 uM after 48 hrs by MTT assay relative to control. Format: functional.
Series [3] has as its system Hep 3B2. Nature of the series: Growth inhibition of human Hep3B cells at 10 uM after 24 hrs by MTT assay relative to control. Format: functional. The note with it: read-out: GI.
The nature of series [4]: Growth inhibition of HUVEC at 25 uM after 24 hrs by MTT assay relative to control. Format: cell-based. The note with it: human, HUVEC cells; read-out: GI.
Series [5] in a line: Growth inhibition of HUVEC at 50 uM after 24 hrs by MTT assay relative to control. Conditions: human, HUVEC cells; read-out: GI. The format is cell-based.
The test system of series [6] is Hep 3B2. In words: Cell cycle arrest in human Hep3B cells assessed as accumulation at sub-G1 phase at 2.5 to 20 uM by propidium iodide staining based flow cytometry. Format: functional. Conditions: TDE = time-dependent effect.
For series [7], the system named is Hep 3B2. In words: Cell cycle arrest in human Hep3B cells assessed as accumulation at G0/G1 phase at 5 uM after 72 hrs by propidium iodide staining based flow cytometry (reference value: 41.6 to 46.2%). Format: functional.
For series [8], the system named is Hep 3B2. In words: Cell cycle arrest in human Hep3B cells assessed as accumulation at G0/G1 phase at 20 uM after 24 hrs by propidium iodide staining based flow cytometry (reference value: 36.3 to 39.0%). Format: functional. Background: Flow cytometry measures light scatter and fluorescence of single cells or particles in a stream.
Series [9] has as its system Hep 3B2. In words: Cell cycle arrest in human Hep3B cells assessed as accumulation at S phase at 5 uM after 24 hrs by propidium iodide staining based flow cytometry (reference value: 22.6 to 27.1%). The format is functional.
Series [10] relates to Hep 3B2. Nature of the series: Cell cycle arrest in human Hep3B cells assessed as accumulation at S phase at 5 uM after 48 hrs by propidium iodide staining based flow cytometry (reference value: 20.8 to 24%). Format: functional.
The test system of series [11] is Hep 3B2. In words: Cell cycle arrest in human Hep3B cells assessed as accumulation at S phase at 5 uM after 72 hrs by propidium iodide staining based flow cytometry (reference value: 16.4 to 21.1%). Format: functional.
In series [12] the test system is Hep 3B2. Nature of the series: Cell cycle arrest in human Hep3B cells assessed as accumulation at S phase at 10 uM after 24 hrs by propidium iodide staining based flow cytometry (reference value: 22.6 to 27.1%). Format: functional.
Series [13] concerns Hep 3B2. Nature of the series: Cell cycle arrest in human Hep3B cells assessed as accumulation at S phase at 20 uM after 24 hrs by propidium iodide staining based flow cytometry (reference value: 22.6 to 27.1%). Format: functional.
In series [14] the test system is Hep 3B2. Nature of the series: Cell cycle arrest in human Hep3B cells assessed as accumulation at S phase at 20 uM after 48 hrs by propidium iodide staining based flow cytometry (reference value: 20.8 to 24%). The format is functional.
Series [15] has as its system Hep 3B2. Nature of the series: Induction of autophagy in human Hep3B cells after 24 to 72 hrs by acridine orange staining based flow cytometry. The format is functional, cell-based.
For series [16], the system named is Hep 3B2. In words: Cytotoxicity against human Hep3B cells after 6 days by MTT assay. Format: functional, cell-based. The note with it: 144 h.
The test system of series [17] is HT-29. In words: Cytotoxicity against human HT-29 cells after 6 days by MTT assay. Format: functional, cell-based. The note with it: HT-29, 144 h.
The test system of series [18] is Hep 3B2. In words: Induction of autophagy in human Hep3B cells at 10 uM after 48 hrs by acridine orange staining based flow cytometry (reference value: 0.9 to 3%). The format is functional.
For series [19], the system named is Hep 3B2. Nature of the series: Induction of autophagy in human Hep3B cells at 20 uM after 24 hrs by acridine orange staining based flow cytometry (reference value: 1.1 to 1.3%). Format: functional.
Series [20] concerns Hep 3B2. In words: Induction of autophagy in human Hep3B cells at 20 uM after 48 hrs by acridine orange staining based flow cytometry (reference value: 0.9 to 3%). Format: functional.
Series [21] concerns Hep 3B2. In words: Growth inhibition of human Hep3B cells at 2.5 uM after 48 hrs in presence of curcumin by MTT assay. Format: functional.
The subject of series [22] is Hep 3B2. In words: Cell cycle arrest in human Hep3B cells assessed as accumulation at G0/G1 phase at 10 uM after 48 hrs in presence of curcumin by propidium iodide staining based flow cytometry (reference value: […] +/- […]%). The format is functional.
The test system of series [23] is Hep 3B2. In words: Cell cycle arrest in human Hep3B cells assessed as accumulation at G0/G1 phase at 10 uM after 48 hrs in absence of curcumin by propidium iodide staining based flow cytometry (reference value: […] +/- […]%). Format: functional.
Series [24] concerns Hep 3B2. Nature of the series: Cell cycle arrest in human Hep3B cells assessed as accumulation at sub-G1 phase at 10 uM after 48 hrs in presence of curcumin by propidium iodide staining based flow cytometry (reference value: 3.7 +/- 0.4%). Format: functional.
For series [25], the system named is Hep 3B2. Nature of the series: Induction of apoptosis in human Hep3B cells assessed as ratio of cleaved caspase-3 to beta actin level at 10 uM after 48 hrs in absence of curcumin by Western blot analysis. Format: functional.
In series [26] the test system is Hep 3B2. Nature of the series: Induction of apoptosis in human Hep3B cells assessed as ratio of cleaved caspase-3 to beta actin level at 10 uM after 48 hrs in presence of curcumin by Western blot analysis. The format is functional. For orientation: Immunoblotting shows a protein as a band on a membrane.
The test system of series [27] is Hep 3B2. Nature of the series: Induction of autophagy in human Hep3B cells assessed as ratio of LC3-2 to beta-actin level at 10 uM after 48 hrs in presence of curcumin by Western blot analysis. Format: functional.
In series [28] the target is Glycogen synthase kinase-3 beta (Homo sapiens) (UniProt P49841). In words: Inhibition of GSK3beta phosphorylation at Ser9 in human Hep3B cells assessed as ratio of phosphorylated GSK3beta to beta-actin level at 10 uM after 48 hrs by Western blot analysis. Format: cell-based.
Glycogen synthase kinase-3 beta (Homo sapiens), sequence (P49841 whole entry, looked up): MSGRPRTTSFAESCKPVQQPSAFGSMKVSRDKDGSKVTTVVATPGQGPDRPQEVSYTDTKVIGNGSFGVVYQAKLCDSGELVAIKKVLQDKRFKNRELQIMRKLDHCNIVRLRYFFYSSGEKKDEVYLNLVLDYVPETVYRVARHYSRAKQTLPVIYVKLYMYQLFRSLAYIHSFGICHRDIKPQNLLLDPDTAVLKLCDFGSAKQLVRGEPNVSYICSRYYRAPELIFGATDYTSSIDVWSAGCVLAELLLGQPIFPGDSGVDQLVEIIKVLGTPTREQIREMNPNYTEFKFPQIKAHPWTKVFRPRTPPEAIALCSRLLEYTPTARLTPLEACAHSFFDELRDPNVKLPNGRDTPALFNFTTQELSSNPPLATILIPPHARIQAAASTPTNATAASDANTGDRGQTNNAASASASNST
For series [29], the system named is Hep 3B2. In words: Up regulation of […] expression in human Hep3B cells at 1 uM after 6 to 24 hrs by L1000 expression profiling method relative to control. The format is functional.
The subject of series [30] is Hep 3B2. In words: Down regulation of HTRA1 expression in human Hep3B cells at 1 uM after 6 to 24 hrs by L1000 expression profiling method relative to control. The format is functional.
Series [31] concerns Hep 3B2. In words: Down regulation of DUSP11 expression in human Hep3B cells at 1 uM after 6 to 24 hrs by L1000 expression profiling method relative to control. Format: functional.
Series [32] relates to Hep 3B2. In words: Down regulation of FAM69A expression in human Hep3B cells at 1 uM after 6 to 24 hrs by L1000 expression profiling method relative to control. The format is functional.
The subject of series [33] is Hep 3B2. In words: Cell cycle arrest in human Hep3B cells assessed as accumulation at G0/G1 phase at 2.5 uM after 24 hrs by propidium iodide staining based flow cytometry (reference value: 36.3 to 39.0%). The format is functional.
Series [34] relates to Hep 3B2. In words: Cell cycle arrest in human Hep3B cells assessed as accumulation at G2/M phase at 2.5 uM after 72 hrs by propidium iodide staining based flow cytometry (reference value: 28.7 to 32.3%). Format: functional.
Series [35] relates to Hep 3B2. Nature of the series: Cell cycle arrest in human Hep3B cells assessed as accumulation at sub-G1 phase at 40 uM after 24 hrs by propidium iodide staining based flow cytometry (reference value: 1.9 to 3.6%). Format: functional.
The subject of series [36] is Hep 3B2. In words: Cell cycle arrest in human Hep3B cells assessed as accumulation at sub-G1 phase at 40 uM after 72 hrs by propidium iodide staining based flow cytometry (reference value: 0.6 to 3.3%). The format is functional.
The test system of series [37] is Hep 3B2. In words: Cell cycle arrest in human Hep3B cells assessed as accumulation at S phase at 40 uM after 72 hrs by propidium iodide staining based flow cytometry (reference value: 16.4 to 21.1%). Format: functional.

The values below come from ChEMBL document CHEMBL4024707, “Using gene expression database to uncover biology functions of 1,4-disubstituted 1,2,3-triazole analogues synthesized via a copper (I)-catalyzed reaction” (Eur J Med Chem, 2017).

For orientation: IC50 means the point on the concentration scale where inhibition reaches its midpoint. On to `CNC(=O)c1cc(Oc2ccc(NC(=O)Nc3ccc(Cl)c(C(F)(F)F)c3)cc2)ccn1` [SORAFENIB], for which the IC50 in series [1] amounted to 40.6 µM. Further, the Activity is 68.4% in series [2]; “Tde” in series [6]; 47.8% in series [7]; 45.7% in [8]; 19.8% in [9]; 13.1% in [10]. Besides, the Activity in series [11] was 13.7%; in series [12] it was 12.3%; in series [13], 14.3%; in [14], 9.6%; in series [15], “Dose-dependent effect”. Besides, in series [3], the inhibition of growth at 10 µM amounted to 8.6%. For the same compound, the inhibition at 24 h, 25 µM in series [4] was found to be 41.4%. In addition, in series [5], the inhibition at 24 h, 50 µM was 60%.

For the compound `O=C1COc2ccccc2N1Cc1cn(CCC2OCCO2)nn1`, the IC50 in [16] stood at 0.5 µM; in series [17] it was 5.7 µM; in [1], 115 µM. The Activity in series [2] was 53.4%; in series [6], “Tde”; in [18], 20.3%; in [19] it was 5.5%; in series [20] it was 37%; in series [22], 24.8%. Besides, the Activity was determined as 11.6% in [23] and 21.6% in series [24]. In addition, the inhibition of growth at 10 µM in series [3] came out at 18%. Further, the inhibition at 24 h, 25 µM in series [4] turned out to be 23.8%. In series [5], the inhibition at 24 h, 50 µM came to 21.5%. In addition, the CI in [21] was 0.96. Moreover, the Ratio in [25] is 2.8; in [26], 1.4; in series [27], 10.5; in [28], 0.7. The log2FC was 3.5557 in [29], -3.2036 in [30], -3.3243 in series [31] and -4.3309 in [32].

Consider `COc1ccc(CNC(=O)Nc2ncc([N+](=O)[O-])s2)cc1`, for which the Activity was determined as 36.8% in [33]; 42.4% in [7]; 33% in series [8]; 25% in series [9]; 24.6% in [10]; 21.7% in series [11]. Further, the Activity was determined as 23.4% in series [12]; 25.1% in series [13]; 20% in series [14]; 35.3% in series [34]; 5.8% in series [18]; 8.9% in [19]. Also, the Activity was 5.5% in series [20]; “Dose-dependent effect” in series [15]; 6.5% in series [35]; 5.4% in series [36]; 13.5% in series [37].
